Experimental data as given in patent US20220002288A1, “MONOBACTAM COMPOUNDS AND USE THEREFOR” (priority 2018, published 2022).
Counter-ions that a name gives are not always drawn.

Key:
[1] = test system: Acinetobacter baumannii, Pseudomonas aeruginosa, and Escherichia coli; assay: In vitro antibacterial activity, summary statements over all strains of Experimental Example 1; type: cell-based; conditions: method of Experimental Example 1
Outline: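 MICs were determined per CLSI guidelines against 6 A. baumannii strains (including ATCC 19606), 2 P. aeruginosa and 1 E. coli. Compounds were dissolved in DMSO and tested at final concentrations of 0.0625–64 μg/mL in twofold steps.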

[2] = Pharmacokinetics of the compounds in mice; type: in vivo, BALB/c mice
Outline: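 Male BALB/c mice (16-24 g) got a single 2 mg/kg tail-vein dose in physiological saline (0.2 mg/mL). Orbital plexus blood taken at 5, 15, 30 min and 1, 2, 4 h. Plasma was protein-precipitated with methanol:acetonitrile, and compound was quantified by LC-MS/MS for PK parameters.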

[3] = test system: Escherichia coli; assay: In vitro antibacterial activity, minimum inhibitory concentration (MIC); type: cell-based; conditions: strain CLB30048, read-out: MIC
Outline: (§1)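 CLSI broth microdilution in 1.02×CAMHB; two-fold compound series 64 to 0.0625 μg/mL final from DMSO. Inoculum from TSA colonies adjusted to OD600 0.1-0.15 in saline, diluted 400-fold, verified by colony count. Growth scored visually after 20 h at 35±2° C.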

[4] = test system: Acinetobacter baumannii; assay: as above; type: cell-based
Outline: as §1

[5] = mouse, male BALB/c mice, single intravenous dose 2 mg/kg, plasma

With `CC1(C)[C@H](NC(=O)/C(=N\O[C@@H](COc2ccc(C(=O)Nc3cn(CCCN)[n+](CC4CNC4)c3)cc2)C(=O)O)c2csc(N)n2)C(=O)N1OS(=O)(=O)[O-]` [Example 1, (S)-3-((Z)-2-(((S)-2-(4-((1-(3-aminopropyl)-2-(azetidin-3-ylmethyl)-1H-pyrazol-2-ium-4-yl)carbamoyl)phenoxy)-1-carboxyethoxy)imino)-2-(2-aminothiazol-4-yl)acetylamino)-2,2-dimethyl-4-oxoazetidin-1-yl Sulfate] the “in vitro antibacterial activity (in words)” value [1] was “excellent antibacterial activity”, the “blood concentration (CO)” value ([2]; intravenous dose of 2 mg/kg) was 11548 ng/mL and the Vd ([2]; male, BALB/c, mouse, plasma, iv, 2 mg/kg, male BALB/c mice, single intravenous dose 2 mg/kg, plasma, read-out: VSS) was 0.25 L/kg. For the same molecule, the AUC(0-inf) [2, 5] was 3180 ng·h/mL, the AUC(0-t) [2, 5] was 3140 ng·h/mL and the C0 [2, 5] was 11500 ng/mL. It also gave a clearance [2, 5] of 10.8 mL/min/kg, a half-life [2, 5] of 20.4 min and an MIC [3] of 2 µg/mL. For the same molecule, the MIC ([4]; ATCC19606, strain ATCC 19606) was 2 µg/mL, the MIC ([4]; strain HDBAB-YK4) was 2 µg/mL and the MIC ([4]; strain HDBAB-YK7) was 0.25 µg/mL. The MIC ([4]; strain HDBAB-YK12) was 2 µg/mL, the MIC ([4]; strain HDBAB-YK16) was 8 µg/mL and the MIC ([4]; strain HDBAB_OXA_7) was 4 µg/mL.
